# ChEMBL document CHEMBL3352633, “β-Lactam estrogen receptor antagonists and a dual-targeting estrogen receptor/tubulin ligand” (J Med Chem, 2014)
# The source made the active and inactive calls. The rule behind the calls is not given here.
# Columns and labels:
# MCF7 [1] = assay: cells; conditions: Homo sapiens, MCF7, 72 h
# Estrogen receptor beta [2] = biological target: T1, Estrogen receptor beta (Homo sapiens, UniProt Q92731); assay: Displacement of fluorescein-labeled estrogen from human recombinant ERbeta at 1 uM by fluorescence polarization based competitive binding affinity assay
# [3] = biological target: T2, Estrogen receptor (Homo sapiens) (UniProt P03372); assay: Displacement of fluorescein-labeled estrogen from human recombinant ERalpha at 1 uM by fluorescence polarization based competitive binding affinity assay
# T2 sequence (whole entry): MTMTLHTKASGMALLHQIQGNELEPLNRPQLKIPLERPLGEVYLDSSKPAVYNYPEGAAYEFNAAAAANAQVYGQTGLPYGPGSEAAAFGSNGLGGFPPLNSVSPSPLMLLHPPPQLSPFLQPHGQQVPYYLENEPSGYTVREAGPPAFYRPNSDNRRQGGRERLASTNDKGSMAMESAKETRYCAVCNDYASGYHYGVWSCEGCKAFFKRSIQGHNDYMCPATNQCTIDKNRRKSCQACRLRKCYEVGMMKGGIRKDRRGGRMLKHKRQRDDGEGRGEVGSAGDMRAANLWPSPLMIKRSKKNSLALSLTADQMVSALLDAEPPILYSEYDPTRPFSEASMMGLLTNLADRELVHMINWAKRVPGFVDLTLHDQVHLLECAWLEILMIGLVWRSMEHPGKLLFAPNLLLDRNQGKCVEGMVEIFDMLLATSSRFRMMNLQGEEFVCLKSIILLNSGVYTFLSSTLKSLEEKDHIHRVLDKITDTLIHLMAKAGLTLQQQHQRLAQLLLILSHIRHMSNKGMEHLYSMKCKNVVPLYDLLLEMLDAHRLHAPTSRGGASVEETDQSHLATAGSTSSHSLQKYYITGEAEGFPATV
# Estrogen receptor [4] = biological target: T3, Estrogen receptor (Homo sapiens, UniProt P03372); assay: Antagonist activity at human recombinant ERalpha by FRET assay
# T3 sequence (P03372 whole entry): T2 sequence (whole entry)
# Estrogen receptor beta [5] = biological target: T1, Estrogen receptor beta
# Description: (§1) Displacement of fluorescein-labeled estrogen from human recombinant ERbeta by fluorescence polarization based competitive binding affinity assay
# Estrogen receptor [6] = biological target: T3, Estrogen receptor
# Description: (§2) Displacement of fluorescein-labeled estrogen from human recombinant ERalpha by fluorescence polarization based competitive binding affinity assay
# [7] = biological target: T2, Estrogen receptor (Homo sapiens); assay: Agonist activity at human recombinant ERalpha by FRET assay
# MCF7 [8] = assay: Induction of cell cycle arrest in human MCF7 cells assessed as accumulation at subG1 phase at 1 to 10 uM after 72 hrs by propidium iodide staining based flow cytometry (reference value: 3.7%); format: functional
# Tubulin (Homo sapiens) = Tubulin (Homo sapiens) (UniProt P68371+Q9H4B7+P0DPH7+P68366+Q13509+Q71U36+P04350+Q3ZCM7+P07437+P68363+Q9BQE3+Q6PEY2+Q13885+Q9BVA1+Q9BUF5); assay: Induction of tubulin depolymerization in human MCF7 cells at 1 uM after 4 hrs by sedimentation assay and Western blotting method; format: cell-based
# MCF7 [9] = assay: Induction of cell cycle arrest in human MCF7 cells assessed as accumulation at G2/M phase at 1 to 10 uM after 24 hrs by propidium iodide staining based flow cytometry; format: functional
# MCF7 [10] = assay: Reduction in Bcl-2 expression in human MCF7 cells at 10 uM after 48 hrs by SDS-PAGE and Western blot method; format: functional, cell-based
# MCF7 [11] = assay: Reduction in Mcl-1 expression in human MCF7 cells at 10 uM after 72 hrs by SDS-PAGE and Western blot method; format: functional, cell-based
# MCF7 [12] = assay: Induction of cell cycle arrest in human MCF7 cells assessed as accumulation at subG1 phase at 1 to 10 uM after 48 hrs by propidium iodide staining based flow cytometry (reference value: 1.9%); format: functional
# MCF7 [13] = assay: Induction of cell cycle arrest in human MCF7 cells assessed as accumulation at subG1 phase at 1 to 10 uM after 24 hrs by propidium iodide staining based flow cytometry; format: functional
# MCF7 [14] = assay: Reduction in Bcl-2 expression in human MCF7 cells at 10 uM after 72 hrs by SDS-PAGE and Western blot method; format: functional, cell-based
# MCF7 [15] = assay: Induction of cell cycle arrest in human MCF7 cells assessed as increase in accumulation at sub-G1 phase at 1 to 10 uM after 24 hrs by propidium iodide staining based flow cytometry; format: functional
# MCF7 [16] = assay: Induction of cell cycle arrest in human MCF7 cells assessed as accumulation at G2/M phase at >100 nM after 24 hrs by propidium iodide staining based flow cytometry; format: functional
# Estrogen receptor [17] = biological target: T3, Estrogen receptor; remark: listed apart in the source
# Description: as §2
# Estrogen receptor beta [18] = biological target: T1, Estrogen receptor beta; remark: listed apart in the source
# Description: as §1
# MCF7 [19] = assay: Induction of cell cycle arrest in human MCF7 cells assessed as accumulation at G2/M phase at 10 uM after 24 hrs by propidium iodide staining based flow cytometry; format: functional
# MCF7 [20] = assay: Induction of cell cycle arrest in human MCF7 cells assessed as increase in accumulation at sub-G1 phase at >10 nM after 24 hrs by propidium iodide staining based flow cytometry; format: functional
# T1 sequence (Q92731 whole entry): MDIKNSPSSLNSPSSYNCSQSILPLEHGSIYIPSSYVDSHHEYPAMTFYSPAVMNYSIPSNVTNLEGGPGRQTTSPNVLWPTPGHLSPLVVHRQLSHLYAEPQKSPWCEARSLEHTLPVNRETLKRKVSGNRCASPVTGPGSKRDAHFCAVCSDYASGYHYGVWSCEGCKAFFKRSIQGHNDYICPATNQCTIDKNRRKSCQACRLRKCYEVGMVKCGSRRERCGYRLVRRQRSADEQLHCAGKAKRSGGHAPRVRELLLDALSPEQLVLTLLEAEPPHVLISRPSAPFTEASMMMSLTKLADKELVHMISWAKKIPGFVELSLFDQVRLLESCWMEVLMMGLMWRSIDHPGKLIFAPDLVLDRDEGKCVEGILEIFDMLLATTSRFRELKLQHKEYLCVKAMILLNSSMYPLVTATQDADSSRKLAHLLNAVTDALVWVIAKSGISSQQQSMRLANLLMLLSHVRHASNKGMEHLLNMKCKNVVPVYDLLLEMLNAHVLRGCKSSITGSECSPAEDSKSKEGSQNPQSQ
Structure (SMILES),IC50 (MCF7 [1]),IC50 (Estrogen receptor beta [5]),IC50 (Estrogen receptor [6]),also measured
COc1ccc([C@H]2[C@H](C(O)c3ccc(O)cc3)C(=O)N2c2ccc(OC)cc2)cc1 (stereo partly specified),32000 nM,,,inhibition (Estrogen receptor beta [2]): 75%; inhibition [3]: 37%
O=C1[C@@H](c2ccc(O)cc2)[C@H](c2ccc(O)cc2)N1c1ccc(O)cc1 (relative stereo),> 50000 nM,4800 nM,1100 nM,IC50 (Estrogen receptor [4]): 1400 nM; Activity [7]: inactive
COc1ccc([C@H]2[C@H](C(O)c3ccc(O)cc3)C(=O)N2c2cc(OC)c(OC)c(OC)c2)cc1 (stereo partly specified),210 nM,15 nM,8 nM,Activity (MCF7 [8]): 17%; Activity (Tubulin (Homo sapiens)): Active; Activity (MCF7 [9]): Active; Activity (MCF7 [10]): Active; Activity (MCF7 [11]): Active; inhibition (Estrogen receptor beta [2]): 94%; Activity (MCF7 [12]): 9.3%; Activity (MCF7 [13]): inactive; inhibition [3]: 93%; Activity (MCF7 [14]): Active
O=C1[C@@H](c2ccc3ccccc3c2)[C@H](c2ccc(O)cc2)N1c1ccc(O)cc1 (relative stereo),> 50000 nM,1100 nM,150 nM,
COc1ccc([C@H]2CC(=O)N2c2cc(OC)c(OC)c(OC)c2)cc1,,,,Activity (MCF7 [15]): Active; Activity (MCF7 [16]): Active; IC50 (Estrogen receptor [17]): Not Active; IC50 (Estrogen receptor beta [18]): Not Active
COc1cc([C@@H]2C(=O)N(c3ccc(O)cc3)[C@H]2c2ccc(O)cc2)cc(OC)c1OC (relative stereo),> 50000 nM,23000 nM,1470 nM,
O=C1[C@@H](Oc2ccccc2)[C@H](c2ccc(O)cc2)N1c1ccc(O)cc1 (relative stereo),> 50000 nM,1200 nM,140 nM,
COc1cc([C@H]2[C@H](c3ccc(O)cc3)C(=O)N2c2ccc(O)cc2)cc(OC)c1OC (relative stereo),> 50000 nM,144000 nM,18000 nM,
O=C1[C@@H](C(O)c2ccc(O)cc2)[C@H](c2ccc(O)cc2)N1c1ccc(O)cc1 (stereo partly specified),49000 nM,,,inhibition (Estrogen receptor beta [2]): 43%; inhibition [3]: 40%
COc1ccc([C@@H]2[C@@H](c3ccc(C(O)c4ccc(OCCN5CCCC5)cc4)cc3)C(=O)N2c2ccc(OC)cc2)cc1 (stereo partly specified),4630 nM,,,
COC(=O)Nc1nc2cc(C(=O)c3cccs3)ccc2[nH]1,,,,Activity (Tubulin (Homo sapiens)): Active
COc1ccc([C@H]2[C@H](C(O)c3ccc(OCCN4CCCC4)cc3)C(=O)N2c2cc(OC)c(OC)c(OC)c2)cc1 (stereo partly specified),3800 nM,,,IC50 (Estrogen receptor [17]): Not Active; Activity (MCF7 [19]): Active; IC50 (Estrogen receptor beta [18]): Not Active; Activity (MCF7 [20]): Active
O=C1C[C@H](c2ccc(O)cc2)N1c1ccc(O)cc1,> 50000 nM,56000 nM,13000 nM,
O=C1N(c2ccc(O)cc2)[C@@H](c2ccc(O)cc2)C1(c1ccccc1)c1ccccc1,> 50000 nM,19 nM,40 nM,
O=C1[C@@H](c2ccccc2)[C@H](c2ccc(O)cc2)N1c1ccc(O)cc1 (relative stereo),> 50000 nM,980 nM,230 nM,
